We go through nine compounds from patent US10435412B2, “Selective modulators of the activity of the GPR55 receptor: chromenopyrazole derivatives” (Consejo Superior de Investigaciones Cientificas (CSIC), priority 2015, dated 2019).

The term Emax denotes the maximal effect, on the per cent scale that the assay sets. A word on the melting point: it is the temperature, or range, at which the solid turns liquid. For orientation: EC50 means the midpoint of the concentration-response curve.

Series [1] has as its target T1, GPR55 receptor (Homo sapiens, UniProt Q9Y2T6).
T1 construct: expressed in transfected cells
Description: GPR55 agonist activity, real-time cell impedance (xCELLigence) in hGPR55-HEK293 cells. The format is cell-based. To be noted: mean (95% confidence interval); for Emax: read-out: Emax (%), agonist action on GPR55. The method, then:
(§1) In the present invention, the activity of the compounds of the invention on the GPR55 receptor was assessed by performing in vitro assays with real-time cell impedance measurements (xCELLigence experiments). These assays were performed on a HEK293 human embryonic kidney cell line overexpressing the recombinant GPR55 receptor in stable form (hGPR55-HEK293). The cells were seeded one day prior to carrying out the stimulation with the exemplary compounds of the present invention.
Activation of the GPR55 receptor by an agonist compound causes a cellular impedance detected by the system and compared to lysophosphatidylinositol (LPI), a reference GPR55 ligand. The effect of LPI measured at a concentration of 1 μM was set at 100%. […] Therefore, dose-response curves were determined at this time. Cell impedance values were normalized for each well, just prior to addition of the inventive compound of the invention to be evaluated.

Series [2] has as its target T1, GPR55 receptor. Description: GPR55 antagonist activity: inhibition of LPI-mediated GPR55 stimulation (xCELLigence) in hGPR55-HEK293 cells. In kind it is cell-based. To be noted: LPI alone or with example compound at 1 μM, mean (95% confidence interval). Here is the method: as §1
The ability of the exemplary compounds of the patent to inhibit LPI-mediated GPR55 receptor stimulation has been evaluated.
Values represent the mean with a 95% confidence interval calculated with 4 independent experiments performed in duplicate. Significant differences with respect to LPI values are considered due to lack of overlap of confidence intervals.

Setting [3] is: maximum effect relative to LPI 1 μM = 100%.

T1 sequence (Q9Y2T6 whole entry): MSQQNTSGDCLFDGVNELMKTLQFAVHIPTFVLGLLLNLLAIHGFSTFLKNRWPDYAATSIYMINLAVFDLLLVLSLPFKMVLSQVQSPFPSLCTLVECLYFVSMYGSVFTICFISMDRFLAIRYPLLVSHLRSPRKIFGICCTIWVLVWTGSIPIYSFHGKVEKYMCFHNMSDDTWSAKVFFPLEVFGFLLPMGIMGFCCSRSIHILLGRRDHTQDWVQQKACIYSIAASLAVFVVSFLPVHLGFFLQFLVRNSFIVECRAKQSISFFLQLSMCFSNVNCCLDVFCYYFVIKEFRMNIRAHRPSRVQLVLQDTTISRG

`COc1ccc2c(c1)OC(C)(C)c1cn(CCN3CCN(C(=O)C4CCCO4)CC3)nc1-2` (stereo not shown) [Example 8, 2-(2-(4-(2-tetrahydrofuroyl)piperazinyl)ethyl)-2,4-dihydro-7-methoxy-4,4-dimethylchromeno[4,3-c]pyrazole] gave a melting point of 158 to 160 °C. Moreover, the Emax on GPR55 receptor [1] (setting [3]) stood at 51%.

On to `COc1ccc2c(c1)OC(C)(C)c1cn(CCN3CCN(C(=O)c4ccco4)CC3)nc1-2` [Example 2, 2-(2-(4-(2-furoyl)piperazinyl)ethyl)-2,4-dihydro-7-methoxy-4,4-dimethylchromeno[4,3-c]pyrazole], for which the Emax on GPR55 receptor [1] (setting [3]) came out at 43%. In turn, `COc1ccc2c(c1)OC(C)(C)c1cn(CCN3CCN(C(=O)COc4ccccc4)CC3)nc1-2` [Example 7, 2-(2-(4-phenoxyacetylpiperazinyl)ethyl)-2,4-dihydro-7-methoxy-4,4-dimethylchromeno[4,3-c]pyrazole] came in with a melting point of 177 to 179 °C. Besides, the Emax at GPR55 receptor [1] (setting [3]) was 52%.

For `COc1ccc2c(c1)OC(C)(C)c1cn(CCN3CCN(C(=O)C4CCCCC4)CC3)nc1-2` [Example 9, 2-(2-(4-cyclohexylcarbonyl-piperazinyl)ethyl)-2,4-dihydro-7-methoxy-4,4-dimethylchromeno[4,3-c]pyrazole], the melting point lay within 151 to 152 °C. The Emax on GPR55 receptor [1] (setting [3]) was determined as 47%. For the compound “lysophosphatidylinositol [LPI, reference compound]”, the half-maximal effective concentration (EC50) was 2.82 nM on GPR55 receptor [1] (hGPR55-HEK293 cells, xCELLigence, 5 minutes after addition, 4 experiments, read-out: EC50 (nM), agonist action on GPR55) and 1.6 nM at GPR55 receptor [2] (hGPR55-HEK293 cells, read-out: EC50 (nM) of LPI in the presence of example compound). In addition, at GPR55 receptor [1] (setting [3]), the “Emax (%), agonist action on GPR55” value is 100 (81-118) %. The “Emax (%) of LPI in the presence of example compound” value on GPR55 receptor [2] (relative to LPI activity) is recorded as 99 (90-108) %. For `COc1ccc2c(c1)OC(C)(C)c1cn(CCN3CCN(C(=O)c4ccccc4)CC3)nc1-2` [Example 4, 2-(2-(4-benzoyl-piperazinyl)ethyl)-2,4-dihydro-7-methoxy-4,4-dimethylchromeno[4,3-c]pyrazole], at GPR55 receptor [1] (setting [3]), the Emax was 51%. In the case of `COc1ccc2c(c1)OC(C)(C)c1cn(CCN3CCN(C(=O)C(C)(C)C)CC3)nc1-2` [Example 10, 2-(2-(4-pivaloyl-piperazinyl)ethyl)-2,4-dihydro-7-methoxy-4,4-dimethylchromeno[4,3-c]pyrazole], the Emax at GPR55 receptor [1] (setting [3]) was determined as 49%. Take `COc1ccc2c(c1)OC(C)(C)c1cn(CNC(=O)CN3CCN(c4ccccc4OC)CC3)nc1-2` [Example 14, 2-(2-(4-(2-methoxyphenyl)piperazinyl)acetamidomethyl)-2,4-dihydro-7-methoxy-4,4-dimethylchromeno[4,3-c]pyrazole]: at GPR55 receptor [1] (setting [3]), the Emax is 51%.

The compound `COc1ccc2c(c1)OC(C)(C)c1cn(CCN3CCN(C(=O)c4cccs4)CC3)nc1-2` [Example 6, 2-(2-(4-(2-thienoyl)piperazinyl)ethyl)-2,4-dihydro-7-methoxy-4,4-dimethylchromeno[4,3-c]pyrazole] came in with a melting point of 163 to 165 °C. In addition, the Emax on GPR55 receptor [1] (setting [3]) stood at 45%.
